Test results published in PMC4735867, “Leukotriene E4 is a full functional agonist for human cysteinyl leukotriene type 1 receptor-dependent gene expression” (Scientific Reports, 2016).

Molecular target: T1, CysLT1 (cysteinyl leukotriene type 1 receptor) (Homo sapiens, UniProt Q9Y271)
T1 construct: gene CYSLTR1
T1 sequence (Q9Y271 1-337): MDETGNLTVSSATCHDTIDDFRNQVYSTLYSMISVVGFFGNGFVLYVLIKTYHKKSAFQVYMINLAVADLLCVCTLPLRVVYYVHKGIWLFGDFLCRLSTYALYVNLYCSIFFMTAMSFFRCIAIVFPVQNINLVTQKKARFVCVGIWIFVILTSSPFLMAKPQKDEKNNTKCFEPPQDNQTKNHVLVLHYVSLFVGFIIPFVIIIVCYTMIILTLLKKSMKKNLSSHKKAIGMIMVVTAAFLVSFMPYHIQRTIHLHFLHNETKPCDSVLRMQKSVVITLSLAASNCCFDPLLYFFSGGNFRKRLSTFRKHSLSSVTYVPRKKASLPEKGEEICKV
Type: cell-based

## CC(C)(O)c1ccccc1CC[C@@H](SCC1(CC(=O)O)CC1)c1cccc(/C=C/c2ccc3ccc(Cl)cc3n2)c1 [Montelukast]
  antagonism (100 nmol/L) of LTD4/LTE4-induced calcium mobilisation and CCL4 expre: Montelukast fully inhibiting LTE4 responses in LAD2 as well as LTD4 responses in LAD2 and LUVA cells
